Source: US6713513B2, “Method for treating cartilage related diseases” (Juneng Industry Co., Ltd., priority 2001, dated 2004)
Marks after values point to notes of the source that are not given here.

Key:
[1] = system: mRNA of collagen I of osteocyte; experiment: Hybridization in situ of mRNA of collagen I, osteocytes, femur of rats with retinoic acid osteoporosis; format: in vivo, rat; settings: for Positive Case Nos. of osteocyte (mRNA of collagen I) / Positive percentage of mRNA of collagen I, osteocyte: 100 mg/kg body weight, 10 weeks
Protocol: (§1) The rats were administered drugs for 10 weeks, respectively.
(§2) Collagen I was stained by hybridization in situ, following the directions of the kit. After specific hybridization, mRNA of collagen I was developed by 3,3′-diaminobenzidine (DAB). The slide was routinely dehydrated and mounted.
(§3) X2 test was conducted to the experimental data.

[2] = system: mRNA of collagen I of chondrocyte; experiment: Hybridization in situ of mRNA of collagen I, chondrocytes, femur of rats with retinoic acid osteoporosis; format: in vivo, rat
Protocol: as §1, §2, §3

[3] = system: bone tissue of the rat with osteoporosis caused by retinoic acid; experiment: Histochemical staining (M-S, T-B, HE, V-K silver) of bone and cartilage; settings: for Articular cartilage / cartilage matrix: blank-control group as normal reference; for Formation of new bone: compared with blank-control group; for Bone trabeculae in cancellous bone (figure legends): FIGS. 7, 13, 14
Protocol: (§4) Grouping of animals: 66 male 3-month-aged rats were used in the present test. Eight rats were randomly selected as blank-control group, which were fed with normal diet and tap water. The other 58 rats were randomly divided into 9 groups, and were continuously administered retinoic acid with a dosage of 70 mg/kg body weight and volume of 10 ml/kg body weight, and were fed with low calcium diet meanwhile. After two weeks of administration of retinoic acid, stop the drug and thus establishing osteoporosis models.
(4) Calcium citrate group: 6 rats, administered calcium citrate with a dosage of 100 mg/kg body weight
(5) Sodium hydroxyethyl phosphate group: 6 rats, administered sodium hydroxyethyl phosphate with a dosage of 100 mg/kg body weight
(§5) The rats were administered drugs for 10 weeks, respectively. During the whole test period, each group was fed with low calcium diet and de-ionized water except that the blank-control group was fed with normal diet. Then the lower one third of right femur of each rat was extracted, and preserved at −20° C.
(2) Histochemical Staining
a Masson-Goldner Lrichrone staining (M-S staining)
b Toluidine Blue staining (T-B staining)
c Hematoxylin-eosin (HE) staining
d Von Kossa silver staining of partial slice (V-K silver staining).

[4] = system: collagen I of chondrocyte; experiment: Immunohistochemical staining of collagen I (ABC method), chondrocytes, rats with retinoic acid osteoporosis; settings: for Positive Case Nos. of chondrocyte (collagen I immunohistochemical staining) / Positive percentage of collagen I by immunohistochemical staining, chondrocyte: 100 mg/kg body weight, 10 weeks
Protocol: as §4, §5
Collagen I was immunohistochemically stained by ABC method, following the directions of kit. Collagen I was developed by DAB. The slide was routinely dehydrated and mounted. (The detection kit was provided by Wuhan Doctor Microbiologic Engineering Co. Ltd., China. Cat. No: BA0325)
The results were observed by microscopy, which was expressed by positive percentage. X2 test was conducted to the experimental data.

[5] = 100 mg/kg body weight, 10 weeks

Compound | Positive percentage of mRNA of collagen I compared with Model-control group ([1]; rat, in vivo) | Expression percentage of mRNA of collagen I compared with model-control group ([2]; rat, in vivo) | Nourishing blood vessels of the bone ([3]; 10 weeks) | Articular cartilage / cartilage matrix ([3]; 10 weeks) | Formation of new bone ([3]; 10 weeks) | Bone trabeculae in cancellous bone (figure legends) [3] | Osteocollagenous fibers by silver staining (figure legends) ([3]; silver staining, FIGS. 9, 10, 11, 20) | Positive percentages of collagen I by immunohistochemistry, comparison of groups ([4]; rat, in vivo) | Positive Case Nos. of osteocyte (mRNA of collagen I) [1] | Positive percentage of mRNA of collagen I, osteocyte [1] | Staining of glycogen in cancellous bone (figure legends) ([3]; histochemical staining of glycogen, FIGS. 8, 13, 14) | Positive Case Nos. of chondrocyte (collagen I immunohistochemical staining) [4] | Positive percentage of collagen I by immunohistochemical staining, chondrocyte [4] | Positive Case Nos. of chondrocyte (mRNA of collagen I) [2, 5] | Positive percentage of mRNA of collagen I, chondrocyte [2, 5]
calcium L-threonate | significantly higher than Model-control group | significantly higher than that of model-control group | increased | Cartilage collagen fibers and matrix thickened | increased | thick, dense and ordered | parallel, regular and abundant | relatively higher |  |  |  |  |  |  | 
O=P([O-])([O-])OCCO.[Na+].[Na+] [Sodium hydroxyethyl phosphate, sodium hydroxyethyl phosphate] |  |  |  | developed retrograde affection |  | excessive and disorganized |  |  | 2 | 33.3% | less glycogen | 2 | 33.3% |  | 
O=C([O-])CC(O)(CC(=O)[O-])C(=O)[O-].O=C([O-])CC(O)(CC(=O)[O-])C(=O)[O-].[Ca+2].[Ca+2].[Ca+2] [Calcium citrate, calcium citrate] |  |  |  |  | less than those of the blank-control group |  |  |  | 2 | 33.3% |  | 0 (0%)** | 0 (0%)** | 0 (0%) | 0 (0%)
